Where a name gives a salt, the structure may show the parent alone.
Tests used:
Conditions in all cases: stereoisomer not certain
[1] = HILIC, Merck SeQuant ZIC-pHILIC, 150 × 2.1 mm, 5 µm, 40 °C, 0.3 mL/min, estimated dead time 1.1 min; A: acetonitrile; B: water + 2.8 mM ammonium formate, pH 9; gradient (min/%B) 0/5 1/5 10/51 13/51 13.1/5 20/5
[2] = HILIC, Waters ACQUITY UPLC BEH Amide, 150 × 2.1 mm, 1.7 µm, 40 °C, 0.5 mL/min, estimated dead time 0.66 min; A: 5% water + 95% acetonitrile; B: 70% water + 30% acetonitrile + 10 mM ammonium formate, pH 6.5; gradient (min/%B) 0/0 2/0 20/70 23/70 24/0 31/0
[3] = RP, Phenomenex Kinetex C18, 150 × 2.1 mm, 1.7 µm, 30 °C, 0.3 mL/min, estimated dead time 1.1 min; A: water + 0.1% formic acid, pH 3; B: acetonitrile + 0.1% formic acid, pH 3; gradient (min/%B) 0/2 14/100 17/100 17.1/2 25/2

| Structure (SMILES) | LC retention time [1] [min] | LC retention time [2] [min] | LC retention time [3] [min] |
| --- | --- | --- | --- |
| Cn1cnc(C[C@H](N)C(=O)O)c1 [1-METHYL-L-HISTIDINE] | 8.97 | 13.2 | – |
| NCC(N)C(=O)O (centres undefined) [2,3-DIAMINOPROPIONATE] | – | – | 2.37 |
| CC(=O)N[C@@H]1[C@@H](O)[C@H](O)[C@@H](CO)O[C@H]1N [2-ACETAMIDO-2-DEOXY-BETA-D-GLUCOSYLAMINE] | – | – | 9.58 |
| O=CC[C@@H](O)[C@H](O)[C@H](O)CO [2-DEOXY-D-GLUCOSE] | 8.23 | 4.02 | – |
| CCC(O)C(=O)[O-] (centres undefined) [2-HYDROXYBUTYRATE] | – | – | 2.37 |
| CCCCCCCCCC(C)=O [2-UNDECANONE] | – | – | 8.62 |
| O=C(O)Cc1cnc[nH]1 [4-IMIDAZOLEACETATE] | 8.13 | 9.86 | – |
| Cc1ccc(O)c(O)c1 [4-METHYLCATECHOL] | – | – | 3.31 |
| Cc1cnc(=O)[nH]c1N [5-METHYLCYTOSINE] | 6.24 | 5.31 | – |
| Nc1ncnc2c1ncn2C1OC(COP(=O)(O)O)C(OP(=O)(O)O)C1O (centres undefined) [ADENOSINE 3',5'-DIPHOSPHATE] | – | – | 1.36 |
| NC(=O)NC1NC(=O)NC1=O (centres undefined) [ALLANTOIN] | 7.96 | 4.85 | – |
| NC(CCCC(=O)O)C(=O)O (centres undefined) [AMINOADIPATE] | 8.78 | 6.89 | – |
| Cn1cncc1CC(NC(=O)CCN)C(=O)O (centres undefined) [ANSERINE] | 10.1 | 12.5 | – |
| NC(N)=NCCCC(N)C(=O)O (centres undefined) [ARGININE] | 3.62 | 14.2 | – |
| NC(=O)CC(N)C(=O)O (centres undefined) [ASPARAGINE] | 9.25 | 11.5 | – |
| O=Cc1ccccc1 [BENZALDEHYDE] | – | – | 3.93 |
| NCCC(=O)NC(Cc1cnc[nH]1)C(=O)O (centres undefined) [CARNOSINE] | 10.5 | 12.3 | – |
| C[N+](C)(C)CCOP(=O)(O)OP(=O)([O-])OCC1OC(n2ccc(N)nc2=O)C(O)C1O (centres undefined) [CITICOLINE] | 8.89 | 13.4 | – |
| NC(=O)NCCCC(N)C(=O)O (centres undefined) [CITRULLINE] | 9.31 | 11.3 | – |
| CN(CC(=O)O)C(=N)N [CREATINE] | 8.59 | 9.87 | – |
| CN1CC(=O)NC1=N [CREATININE] | 5.92 | 4.34 | – |

| Structure (SMILES) | LC retention time [1] [min] | LC retention time [2] [min] | LC retention time [3] [min] |
| --- | --- | --- | --- |
| NC(CS(=O)(=O)O)C(=O)O (centres undefined) [CYSTEATE] | 8.92 | 10.8 | – |
| O=CC(O)C1OC(=O)C(O)C1O [D-GLUCURONOLACTONE] | 6.28 | 1.86 | – |
| O=C1CC(C(=O)[O-])NC(=O)N1 (centres undefined) [DIHYDROOROTATE] | 7.81 | 7.2 | – |
| CCC(C(=O)O)C(=O)O [ETHYLMALONATE] | – | – | 3.46 |
| NCCCC(=O)O [GAMMA-AMINOBUTYRATE] | – | 10.2 | – |
| NC1C(O)OC(COS(=O)(=O)O)C(O)C1O (centres undefined) [GLUCOSAMINE 6-SULFATE] | 10.5 | 10.6 | – |
| NC1C(O)OC(CO)C(O)C1O (centres undefined) [GLUCOSAMINE] | – | 11.3 | – |
| NC(=O)CCC(N)C(=O)O (centres undefined) [GLUTAMINE] | 9.03 | 11 | – |
| COc1ccccc1O [GUAIACOL] | – | 0.89 | – |
| NC(N)=NCC(=O)O [GUANIDINOACETATE] | 9.05 | 10.2 | – |
| NC(N)=NC(CC(=O)O)C(=O)O (centres undefined) [GUANIDINOSUCCINATE] | 9 | 10.3 | – |
| CCCCCC(=O)[O-] [HEXANOATE] | – | 0.91 | – |
| NCCc1cnc[nH]1 [HISTAMINE] | – | 9.43 | – |
| NC(CO)Cc1cnc[nH]1 (centres undefined) [HISTIDINOL] | – | 9.82 | – |
| NC1CCSC1=O (centres undefined) [HOMOCYSTEINE THIOLACTONE] | – | 1.05 | – |
| NC(CCO)C(=O)O (centres undefined) [HOMOSERINE] | 8.91 | 10.5 | – |
| O=S(=O)(O)Oc1c[nH]c2ccccc12 [INDOXYL SULFATE] | – | – | 4.62 |
| CC(C)C(=O)O [ISOBUTYRATE] | – | 8.79 | – |
| C=C(CC(=O)O)C(=O)O [ITACONATE] | – | – | 3.16 |
| CC(C)CC(=O)C(=O)O [KETOLEUCINE] | – | 1.86 | – |
| C[C@H](N)C(=O)O [L-ALANINE] | – | 9.76 | – |

Reference: the RepoRT retention time repository (doi:10.1016/j.chroma.2019.01.023)
